Laboratory results taken from US20250270246A1, “LINCOSAMIDES AND USES THEREOF” (President and Fellows of Harvard College, priority 2022, published 2025).
Where a name gives a salt, the structure may show the parent alone. Read-outs that look alike come from different tables or passages of the source.

What was measured:
Assay type in all cases: cell-based
[1] = tested on: E. coli HAV#040, LptD; assay: MIC by broth microdilution (CLSI); settings: Escherichia coli, 24 h, read-out: MIC E. coli HAV#040, LptD
In short: (§1)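 Testing follows CLSI broth microdilution; P. aeruginosa is run in Chelex 100-pretreated cation-adjusted broth, other organisms in untreated cation-adjusted Mueller-Hinton broth. Final inoculum is 5×10^5 CFU/mL and the top concentration is 64 μg/mL. MICs reflect inhibition of visible growth at 24 h.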

[2] = tested on: E. coli ATCC 25922 (HAV#006); assay: MIC by broth microdilution (CLSI); settings: for MIC: Escherichia coli, ATCC25922, 24 h, read-out: MIC E. coli ATCC 25922
In short: as §1

[3] = tested on: E. faecium HAV#318, VRE; clinical; assay: MIC by broth microdilution (CLSI); settings: Enterococcus faecium, read-out: MIC E. faecium HAV#318, VRE
In short: as §1

[4] = tested on: S. aureus HAV#016, MRSA; assay: MIC by broth microdilution (CLSI); settings: Staphylococcus aureus, CaMHB, 24 h incubation
In short: as §1

[5] = tested on: S. aureus ATCC 29213 (HAV#001); assay: MIC by broth microdilution (CLSI); settings: for MIC: Staphylococcus aureus, ATCC29213, 24 h, read-out: MIC S. aureus ATCC 29213
In short: as §1

[6] = tested on: S. pyogenes HAV#004, ATCC 19615; assay: MIC by broth microdilution (CLSI); settings: Streptococcus pyogenes, ATCC19615, CaMHB, 24 h incubation
In short: as §1

[7] = tested on: S. pneumoniae HAV#003, ATCC 49619; assay: MIC by broth microdilution (CLSI); settings: Streptococcus pneumoniae, ATCC49619, CaMHB, 24 h incubation
In short: as §1

[8] = tested on: S. aureus HAV#202, ATCC 700699; assay: MIC by broth microdilution (CLSI); settings: Staphylococcus aureus, ATCC700699, CaMHB, 24 h incubation
In short: as §1

[9] = tested on: E. coli HAV#038, ΔTolC; assay: MIC by broth microdilution (CLSI); settings: Escherichia coli, 24 h, read-out: MIC E. coli HAV#038, ΔTolC
In short: as §1

[10] = tested on: K. oxytoca HAV#450; Clinical; assay: MIC by broth microdilution (CLSI); settings: Klebsiella oxytoca, read-out: MIC K. oxytoca HAV#450
In short: as §1

[11] = tested on: S. aureus HAV#031, c-ermA; assay: MIC by broth microdilution (CLSI); settings: Staphylococcus aureus, 24 h, read-out: MIC S. aureus HAV#031, c-ermA
In short: as §1

[12] = tested on: E. faecalis ATCC 29212 (HAV#005); assay: MIC by broth microdilution (CLSI); settings: for MIC: Enterococcus faecalis, ATCC29212, 24 h, read-out: MIC E. faecalis ATCC 29212
In short: as §1

[13] = tested on: S. aureus HAV#216, cfr; assay: MIC by broth microdilution (CLSI); settings: Staphylococcus aureus, 24 h, read-out: MIC S. aureus HAV#216, cfr
In short: as §1

[14] = tested on: K. pneumoniae HAV#402, FQ-R; assay: MIC by broth microdilution (CLSI); settings: Klebsiella pneumoniae, 24 h, read-out: MIC K. pneumoniae HAV#402, FQ-R
In short: as §1

[15] = tested on: S. pyogenes HAV#033, c-ermB; assay: MIC by broth microdilution (CLSI); settings: Streptococcus pyogenes, 24 h, read-out: MIC S. pyogenes HAV#033, c-ermB
In short: as §1

[16] = tested on: A. baumannii ATCC 19606 (HAV#010); assay: MIC by broth microdilution (CLSI); settings: Acinetobacter baumannii, ATCC19606, 24 h, read-out: MIC A. baumannii ATCC 19606
In short: as §1

[17] = tested on: P. aeruginosa ATCC 27853 (HAV#009); assay: MIC by broth microdilution (CLSI), Chelex 100-treated broth; settings: HAV#009, ATCC 27853, CaMHB pre-treated with Chelex 100 ion exchange resin, 24 h
Description: Minimum inhibitory concentrations (MICs) were determined by the broth microdilution method following the Clinical and Laboratory Standards Institute (CLSI) guidelines. Test organisms consisted of standard reference strains from the American Type Culture Collection (ATCC; Manassa, VA, USA) and clinical isolates obtained from JMI Laboratories Inc. (North Liberty, IA, USA), Micromyx repository (MMX; Kalamazoo, MI, USA), and Massachusetts Eye and Ear Hospital (Boston, USA). Before the start of the MIC experiment, standard and test compound stock solutions were prepared in dimethyl sulfoxide (DMSO, Aldrich D2650) at a stock concentration of 2,560 μg/mL. The compound concentration range typically employed for each experiment was 64-0.06 μg/mL (2.5% final DMSO concentration). Iboxamycin was used as a comparator in all experiments. All bacterial strains were sub-cultured on blood agar plates (tryptic soy agar with 5% sheep blood, Hardy Diagnostics) and incubated overnight at 35° C. Organisms were suspended in cation-adjusted Mueller-Hinton broth (CaMHB, BD 212322) and optical density was adjusted to 0.5 McFarland standard. Suspensions were further diluted to obtain a final inoculum of 5×10^5 CFU/mL for broth microdilution experiments. The minimum concentration of compound required to inhibit visible bacterial growth after 24 h of incubation was recorded as the MIC in μg/mL. MICs for P. aeruginosa were recorded in cation-adjusted Mueller-Hinton broth which had been pre-treated with Chelex 100 ion exchange resin according to procedures reported in Ito et al. Antimicrob Agents Chemother (2016) 60 (12), 7396-7401.

[18] = tested on: E. coli Clinical (armA); assay: MIC by broth microdilution (CLSI); settings: for MIC: Escherichia coli, 24 h, read-out: MIC E. coli Clinical (armA)
In short: as §1

[19] = tested on: E. coli lptD mutant; assay: MIC by broth microdilution (CLSI); settings: CaMHB, 24 h incubation; for MIC E. coli lptD mutant: lptD mutant / ΔlptD mutant, formate salt
In short: as §1

[20] = tested on: S. aureus Clinical (cfr); assay: MIC by broth microdilution (CLSI); settings: for MIC: Staphylococcus aureus, 24 h, read-out: MIC S. aureus Clinical (cfr)
In short: as §1

[21] = tested on: S. aureus MMX 3035; assay: MIC by broth microdilution (CLSI); settings: for MIC: Staphylococcus aureus, MMX3035, 24 h, read-out: MIC S. aureus MMX 3035
In short: as §1

[22] = tested on: E. coli ΔtolC; assay: MIC by broth microdilution (CLSI); settings: CaMHB, 24 h incubation; for MIC: Escherichia coli, 24 h, read-out: MIC E. coli ΔtolC, ΔtolC
In short: as §1

[23] = tested on: K. pneumoniae JMI-991193; assay: MIC by broth microdilution (CLSI); settings: for MIC: Klebsiella pneumoniae, JMI991193, 24 h, read-out: MIC K. pneumoniae JMI-991193
In short: as §1

[24] = tested on: H. influenzae ATCC 49247; assay: MIC by broth microdilution (CLSI); settings: Haemophilus influenzae, ATCC49247, 24 h, read-out: MIC H. influenzae ATCC 49247
In short: as §1

[25] = tested on: E. faecium JMI-990536; assay: MIC by broth microdilution (CLSI); settings: Enterococcus faecium, JMI990536, 24 h, read-out: MIC E. faecium JMI-990536
In short: as §1

[26] = tested on: S. pneumoniae c-ermB; assay: MIC by broth microdilution (CLSI); settings: Streptococcus pneumoniae, 24 h, read-out: MIC S. pneumoniae c-ermB
In short: as §1

[27] = HAV#006, ATCC 25922, CaMHB, 24 h incubation
[28] = HAV#001, ATCC 29213, CaMHB, 24 h incubation
[29] = Clinical (cfr), CaMHB, 24 h incubation
[30] = MMX 3035, CaMHB, 24 h incubation
[31] = JMI-991193, CaMHB, 24 h incubation

CC(C)C[C@@H]1CCO[C@@H]2[C@H](CN[C@@H]2C(=O)N[C@@H]2CC/C=C/CS[C@H]3O[C@H]2[C@H](O)[C@H](O)[C@H]3O)C1 [FSA1503054, (4S,5aS,8S,8aR)-4-isobutyl-N-((1R,8R,9R,10R,11S,12R,E)-10,11,12-trihydroxy-13-oxa-2-thiabicyclo[7.3.1]tridec-4-en-8-yl) octahydro-2H-oxepino[2,3-c]pyrrole-8-carboxamide formate salt]
MIC [1]: 4 µg/mL
MIC [2, 27]: 16 µg/mL
MIC ([3]; CaMHB, 24 h incubation): 16 µg/mL
MIC [4]: 0.125 µg/mL
MIC [5, 28]: 0.125 µg/mL
MIC [6]: ≤ 0.03 µg/mL
MIC [7]: ≤ 0.03 µg/mL
MIC [8]: 8 µg/mL
MIC [9]: 1 µg/mL
MIC ([10]; CaMHB, 24 h incubation): 32 µg/mL

CC(C)C[C@@H]1CCO[C@@H]2[C@@H](C1)CN(C)[C@@H]2C(=O)N[C@@H]1C/C=C\CCS[C@H]2O[C@H]1[C@H](O)[C@H](O)[C@H]2O [FSA1508003, (4S,5aS,8S,8aR)-4-isobutyl-7-methyl-8-(((1R,8R,9R,10R,11S,12R,Z)-10,11,12-trihydroxy-13-oxa-2-thiabicyclo[7.3.1]tridec-5-en-8-yl)carbamoyl) octahydro-2H-oxepino[2,3-c]pyrrol-7-ium formate]
MIC [1]: 0.25 µg/mL
MIC [2]: 4 µg/mL
MIC ([3]; 24 h): 1 µg/mL
MIC [11]: 2 µg/mL
MIC [12]: 0.125 µg/mL
MIC [13]: 8 µg/mL
MIC [5]: 0.125 µg/mL
MIC [14]: 16 µg/mL
MIC [15]: 2 µg/mL
MIC [9]: 0.25 µg/mL
MIC [16]: 2 µg/mL
MIC ([10]; 24 h): 8 µg/mL

CC(C)C[C@@H]1CCO[C@@H]2[C@H](CN[C@@H]2C(=O)N[C@@H]2C/C=C/C(CN3CCOCC3)CSC3OC2C(O)C(O)C3O)C1 (single isomer, unassigned) [FSA1608057, formate salt]
MIC ([17]; Pseudomonas aeruginosa, ATCC27853): 32 µg/mL
MIC ([18]; Clinical (armA), CaMHB, 24 h incubation): > 64 µg/mL
MIC [2, 27]: > 64 µg/mL
MIC ([12]; HAV#005, ATCC 29212, CaMHB, 24 h incubation): 2 µg/mL
MIC [5, 28]: 4 µg/mL
MIC E. coli lptD mutant [19]: 32 µg/mL
MIC [20, 29]: > 64 µg/mL
MIC [21, 30]: > 64 µg/mL
MIC [22]: 16 µg/mL
MIC [23, 31]: > 64 µg/mL

CC(C)C[C@@H]1CCO[C@@H]2[C@H](CN[C@@H]2C(=O)N[C@H]2[C@H]3O[C@H](SC[C@H](F)C/C=C\[C@H]2C)[C@H](O)[C@@H](O)[C@H]3O)C1 [FSA1609033, (4S,5aS,8S,8aR)—N-((1R,4R,8R,9R,10R,11R,12S,13R,Z)-4-fluoro-11,12,13-trihydroxy-8-methyl-14-oxa-2-thiabicyclo[8.3.1]tetradec-6-en-9-yl)-4-isobutyloctahydro-2H-oxepino[2,3-c]pyrrole-8-carboxamide formate salt]
MIC [18]: 4 µg/mL
MIC [2]: 1 µg/mL
MIC [24]: ≤ 0.06 µg/mL
MIC [12]: ≤ 0.06 µg/mL
MIC [5]: ≤ 0.06 µg/mL
MIC ([19]; Escherichia coli, 24 h, read-out: MIC E. coli lptD mutant, lptD mutant / ΔlptD mutant): 0.125 µg/mL
MIC [25]: ≤ 0.06 µg/mL
MIC [20]: 0.25 µg/mL
MIC [21]: 0.25 µg/mL
MIC [22]: ≤ 0.06 µg/mL
MIC [23]: 2 µg/mL
MIC [16]: 1 µg/mL
MIC [26]: ≤ 0.03 µg/mL

CC(C)C[C@@H]1CCO[C@@H]2[C@H](CN[C@@H]2C(=O)N[C@@H]2C/C=C/C(CN3CCOCC3)CSC3OC2C(O)C(O)C3O)C1 (single isomer, unassigned) [FSA1608056, formate salt]
MIC P. aeruginosa ATCC 27853 [17]: 32 µg/mL
MIC E. coli Clinical (armA) ([18]; Clinical (armA), CaMHB, 24 h incubation, formate salt): 64 µg/mL
MIC E. coli ATCC 25922 ([2]; HAV#006, ATCC 25922, CaMHB, 24 h incubation, formate salt): 64 µg/mL
MIC E. faecalis ATCC 29212 ([12]; HAV#005, ATCC 29212, CaMHB, 24 h incubation, formate salt): 4 µg/mL
MIC S. aureus ATCC 29213 [5, 28]: 4 µg/mL
MIC E. coli lptD mutant [19]: 4 µg/mL
MIC S. aureus Clinical (cfr) [20, 29]: >64 µg/mL
MIC S. aureus MMX 3035 [21, 30]: >64 µg/mL
MIC E. coli ΔtolC ([22]; ΔtolC): 16 µg/mL
MIC K. pneumoniae JMI-991193 [23, 31]: >64 µg/mL
